Experimental data taken from PubChem BioAssay AID1963979 (Molecular Pharmacology Branch, DTP, NCI, 2024).
Values joined by “and” are separate entries in the source; they are usually repeats but may differ in a detail not shown here. Identical values can stand only once.

Test system: 361931-004-R-J1-PDC multicell spheroid viability
Experiment: Anticancer human tumor 361931-004-R-J1-PDC patient-derived colon adenocarcinoma cell line growth inhibition [PI3K]
Conditions: for viability, T/C: stronger effect = lower value
Source text: Combinatorial screen of targeted agents with the PI3K inhibitors inavolisib, alpelisib, duvelisib, and copanlisib in multi-cell type tumor spheroids
A high-throughput screen of multi-cell type tumor spheroids was designed to identify active combinations of targeted small molecules and PI3K pathway inhibitors. Complex spheroids include a stromal component modeled by human endothelial cells (HUVEC) and fibroblasts modeled by human mesenchymal stem cells (MSCs). The concentration ranges selected for each drug and investigational agent were based upon clinically achievable concentrations if the clinical Cmax of the agent was known.
Compounds. The drugs and investigational agents: inavolisib (NSC800729), alpelisib (NSC765974), duvelisib (NSC772469), copanlisib (NSC816437), ipatasertib (NSC767898), afuresertib (NSC778305), talazoparib (NSC767125), sapanisertib (NSC764658), selumetinib (NSC741078), tovorafenib (DAY101, NSC766906), vemurafenib (NSC761431), ravoxertinib (NSC781343), sotorasib (NSC818433), MRTX1133 (NSC 836407), abemaciclib (NSC 768073), palbociclib (NSC758247), venetoclax (NSC 766270), SY5609 (NSC837396), enzalutamide (NSC755605), and darolutamide (NSC825331), were obtained from the National Cancer Institute (NCI) Developmental Therapeutics Program Chemical Repository. The FDA-approved anticancer drug set is available from the NCI Developmental Therapeutics Program. […] The stock solutions were prepared in dimethyl sulfoxide (DMSO, Sigma-Aldrich, St. Louis, MO, cat. D2650) at 800-fold the tested concentration and stored at -70 degrees C prior to their use. All drugs and investigational agents were tested over a range starting from a high concentration at or near the clinical Cmax and decreasing in half-log increments. If the clinical Cmax for an agent had not been determined, the highest concentration tested was 10 microM.
Cell Culture. All cells were maintained in an incubator at 37 degrees C and 5% CO2 with 95% humidity. The PDC lines were cultured according to standard operating procedures established by the NCI PDMR (https://pdmr.cancer.gov/sops/default.htm). All PDCs were thawed and cultured in Matrigel-coated flasks prepared with a working solution of 1X Ham's F-12 nutrient mix, without supplementation (Invitrogen, Waltham, MA, cat. 11765054), 100 U/mL penicillin-streptomycin (Invitrogen, cat. 15140122), and 2.5% Matrigel (Corning Inc., Corning, NY, cat. 354248) for the first three passages. The 354836-022-R-J1-PDC, 475296-252-R-J1-PDC, and 997726-040-R-J2-PDC lines were cultured in 6A media, which includes advanced DMEM/F-12 (Thermo Fisher Scientific, cat. 12634028), 10 mM HEPES (Thermo Fisher Scientific, cat. 15630080), 1X GlutaMAX supplement (Thermo Fisher Scientific, cat. 35050061), 0.1 mg/mL primocin (InvivoGen, San Diego, CA, cat. ant-pm-2), 10% defined fetal bovine serum, heat inactivated (HyClone Laboratories Inc., Logan, UT, cat. SH30070.03HI), 50% L-WRN conditioned media (ATCC, cat. CRL-3276), 1.25 mM N-Acetyl-L-cysteine (Sigma-Aldrich, cat. A9165), 10 mM nicotinamide (Sigma-Aldrich, cat. N0636), 1X B-27 supplement (Thermo Fisher Scientific, cat. 17504044), 1X N-2 supplement (Thermo Fisher Scientific, cat. 17502048), and 10 microM Y-27632 dihydrochloride (Tocris Bioscience, Bristol, United Kingdom, cat. 1254). The 624824-186-R-J2-PDC line was cultured in 6C/Colon 1B media, which includes all 6A media components plus 50 ng/mL human EGF recombinant protein (Thermo Fisher Scientific, cat. PHG0311). […]

[1] = curve of first compound, second compound 0.0316 µM
[2] = curve of first compound, second compound 0.1 µM
[3] = curve of first compound, second compound 0.316 µM
[4] = curve of first compound, second compound 1 µM
[5] = second compound 0.0316 µM, first compound 0.000316 µM
[6] = second compound 0.0316 µM, first compound 0.001 µM
[7] = second compound 0.0316 µM, first compound 0.00316 µM
[8] = second compound 0.0316 µM, first compound 0.01 µM
[9] = second compound 0.0316 µM, first compound 0.0316 µM
[10] = second compound 0.0316 µM, first compound 0.1 µM
[11] = second compound 0.1 µM, first compound 0.000316 µM
[12] = second compound 0.1 µM, first compound 0.001 µM
[13] = second compound 0.1 µM, first compound 0.00316 µM
[14] = second compound 0.1 µM, first compound 0.01 µM
[15] = second compound 0.1 µM, first compound 0.0316 µM
[16] = second compound 0.1 µM, first compound 0.1 µM
[17] = second compound 0.316 µM, first compound 0.000316 µM
[18] = second compound 0.316 µM, first compound 0.001 µM
[19] = second compound 0.316 µM, first compound 0.00316 µM
[20] = second compound 0.316 µM, first compound 0.01 µM
[21] = second compound 0.316 µM, first compound 0.0316 µM
[22] = second compound 0.316 µM, first compound 0.1 µM
[23] = second compound 1 µM, first compound 0.000316 µM
[24] = second compound 1 µM, first compound 0.001 µM
[25] = second compound 1 µM, first compound 0.00316 µM
[26] = second compound 1 µM, first compound 0.01 µM
[27] = second compound 1 µM, first compound 0.0316 µM
[28] = second compound 1 µM, first compound 0.1 µM
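Note: spheroids exposed to agents for seven days before readout.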

CC(=O)c1c(C)c2cnc(Nc3ccc(N4CCNCC4)cn3)nc2n(C2CCCC2)c1=O + Cc1nc(NC(=O)N2CCCC2C(N)=O)sc1-c1ccnc(C(C)(C)C(F)(F)F)c1
IC50 [1]: > 0.1 µM | IC50 [2]: > 0.1 µM | IC50 [3]: > 0.1 µM | IC50 [4]: > 0.1 µM | IC50 (curve of first compound, second compound 3.16 µM): > 0.1 µM | IC50 (curve of first compound, second compound 10 µM): 0.0564 µM | viability, T/C [5]: 110% | viability, T/C [6]: 105% | viability, T/C [7]: 101% | viability, T/C [8]: 98.7% | viability, T/C [9]: 99.6% | viability, T/C [10]: 78.2% | viability, T/C [11]: 109% | viability, T/C [12]: 106% | viability, T/C [13]: 96.8% | viability, T/C [14]: 94.8% | viability, T/C [15]: 90.7% | viability, T/C [16]: 81.5% | viability, T/C [17]: 106% | viability, T/C [18]: 96.6% | viability, T/C [19]: 104% | viability, T/C [20]: 97.8% | viability, T/C [21]: 83.1% | viability, T/C [22]: 83% | viability, T/C [23]: 97% | viability, T/C [24]: 93.3% | viability, T/C [25]: 84.9% | viability, T/C [26]: 91.9% | viability, T/C [27]: 90.2% | viability, T/C [28]: 65.2% | viability, T/C (second compound 3.16 µM, first compound 0.000316 µM): 80.7% | viability, T/C (second compound 3.16 µM, first compound 0.001 µM): 70.6% | viability, T/C (second compound 3.16 µM, first compound 0.00316 µM): 76.5% | viability, T/C (second compound 3.16 µM, first compound 0.01 µM): 77.7% | viability, T/C (second compound 3.16 µM, first compound 0.0316 µM): 65.7% | viability, T/C (second compound 3.16 µM, first compound 0.1 µM): 52.6% | viability, T/C (second compound 10 µM, first compound 0.000316 µM): 66.7% | viability, T/C (second compound 10 µM, first compound 0.001 µM): 75.9% | viability, T/C (second compound 10 µM, first compound 0.00316 µM): 65% | viability, T/C (second compound 10 µM, first compound 0.01 µM): 58.4% | viability, T/C (second compound 10 µM, first compound 0.0316 µM): 56.5% | viability, T/C (second compound 10 µM, first compound 0.1 µM): 45.1%

CC(=O)c1c(C)c2cnc(Nc3ccc(N4CCNCC4)cn3)nc2n(C2CCCC2)c1=O + COc1c(OCCCN2CCOCC2)ccc2c3n(c(=NC(=O)c4cnc(N)nc4)nc12)CCN3
IC50 (curve of first compound, second compound 0.00316 µM): > 0.1 µM | IC50 (curve of first compound, second compound 0.01 µM): > 0.1 µM | IC50 [1]: > 0.1 µM | IC50 [2]: > 0.1 µM | IC50 [3]: < 0.000316 µM | IC50 [4]: < 0.000316 µM | viability, T/C (second compound 0.00316 µM, first compound 0.000316 µM): 99.6% | viability, T/C (second compound 0.00316 µM, first compound 0.001 µM): 98.4% | viability, T/C (second compound 0.00316 µM, first compound 0.00316 µM): 99.8% | viability, T/C (second compound 0.00316 µM, first compound 0.01 µM): 97% | viability, T/C (second compound 0.00316 µM, first compound 0.0316 µM): 101% | viability, T/C (second compound 0.00316 µM, first compound 0.1 µM): 89.2% | viability, T/C (second compound 0.01 µM, first compound 0.000316 µM): 101% | viability, T/C (second compound 0.01 µM, first compound 0.001 µM): 98.8% | viability, T/C (second compound 0.01 µM, first compound 0.00316 µM): 103% | viability, T/C (second compound 0.01 µM, first compound 0.01 µM): 91.5% | viability, T/C (second compound 0.01 µM, first compound 0.0316 µM): 95.4% | viability, T/C (second compound 0.01 µM, first compound 0.1 µM): 83.4% | viability, T/C [5]: 93.3% | viability, T/C [6]: 89.3% | viability, T/C [7]: 93.3% | viability, T/C [8]: 87.4% | viability, T/C [9]: 83.8% | viability, T/C [10]: 62.9% | viability, T/C [11]: 84.1% | viability, T/C [12]: 69.7% | viability, T/C [13]: 73.7% | viability, T/C [14]: 72.8% | viability, T/C [15]: 67.9% | viability, T/C [16]: 53.1% | viability, T/C [17]: 50.7% | viability, T/C [18]: 45.7% | viability, T/C [19]: 42.3% | viability, T/C [20]: 41.8% | viability, T/C [21]: 49.6% | viability, T/C [22]: 38.1% | viability, T/C [23]: 23.1% | viability, T/C [24]: 17.9% | viability, T/C [25]: 16.4% | viability, T/C [26]: 19.7% | viability, T/C [27]: 21% | viability, T/C [28]: 15.2%

CNC(=O)c1ccc(N2C(=S)N(c3ccc(C#N)c(C(F)(F)F)c3)C(=O)C2(C)C)cc1F
viability, T/C (compound 0.0316 µM): 101% [middle of 4 runs] | viability, T/C (compound 0.1 µM): 101% [middle of 4 runs] | viability, T/C (compound 0.316 µM): 104% [middle of 4 runs] | viability, T/C (compound 1 µM): 110% and 103% (2×) and 102% | viability, T/C (compound 3.16 µM): 98.6% [middle of 4 runs] | viability, T/C (compound 10 µM): 92.4% [middle of 4 runs] | IC50 (curve of compound): > 10 µM
